According to PMC11125359 (Pharmaceuticals, 2024):

Experiments:
[1] = target: bovine serum albumin (BSA) (Bos taurus, UniProt P02769); conditions: equal concentrations (1000 µg/mL); mean ± SE
[2] = ABTS radical scavenging assay; conditions: equal concentrations (1000 µg/mL); mean ± SE
α-glucosidase = experiment: α-Glucosidase inhibition (anti-diabetic); type: biochemical; conditions: equal concentrations (1000 µg/mL); mean ± SE
[3] = Iron-reducing power (IRP); conditions: equal concentrations (1000 µg/mL); mean ± SE, three replicates
α-amylase = experiment: α-Amylase inhibition (anti-diabetic); type: biochemical; conditions: equal concentrations (1000 µg/mL); mean ± SE
[4] = Total antioxidant capacity (TAC), phosphomolybdenum method; conditions: equal concentrations (1000 µg/mL); mean ± SE, three replicates
[5] = target: acetylcholinesterase (AChE) (Homo sapiens, UniProt P22303); experiment: biochemical; conditions: same concentration (1000 µg/mL); mean ± SE
[6] = DPPH radical-scavenging activity; conditions: read-out: DPPH (IC50); mean ± SE, three replicates
Experimental: In vitro biological activities
The 1,1-Diphenyl-2-picryl-hydrazyl (DPPH) radical scavenging activities were evaluated using the method described by Rahman et al. An antioxidant substance capable of donating a
hydrogen atom to a solution containing DPPH- can reduce the stable free radical, causing the solution
to change color from violet to pale yellow. The remaining DPPH- radical was quantified by
nm using a spectroscopic method. Two milliliters of a DPPH solution (100 µM) in ethanol were mixed
with 2 mL of the sample (at each concentration). The reaction mixture for each concentration was
thoroughly vortexed and then incubated in the dark at room temperature for 30 minutes. The
absorbance was then measured spectrophotometrically at 518 nm against a blank (ethanol). For the
control, 2 mL of ethanol was added instead of the sample and run simultaneously with the test.
Ascorbic acid was used at the same concentrations as a positive control. Percent inhibition of the
DPPH free radical was calculated. The median inhibitory concentration (IC 50) for each tested

[7] = tested on: proteinase enzyme (trypsin); experiment: Proteinase enzyme inhibition (anti-inflammatory); type: biochemical; conditions: equal concentrations (1000 µg/mL); mean ± SE

Chain of bovine serum albumin (BSA) (P02769 25-607): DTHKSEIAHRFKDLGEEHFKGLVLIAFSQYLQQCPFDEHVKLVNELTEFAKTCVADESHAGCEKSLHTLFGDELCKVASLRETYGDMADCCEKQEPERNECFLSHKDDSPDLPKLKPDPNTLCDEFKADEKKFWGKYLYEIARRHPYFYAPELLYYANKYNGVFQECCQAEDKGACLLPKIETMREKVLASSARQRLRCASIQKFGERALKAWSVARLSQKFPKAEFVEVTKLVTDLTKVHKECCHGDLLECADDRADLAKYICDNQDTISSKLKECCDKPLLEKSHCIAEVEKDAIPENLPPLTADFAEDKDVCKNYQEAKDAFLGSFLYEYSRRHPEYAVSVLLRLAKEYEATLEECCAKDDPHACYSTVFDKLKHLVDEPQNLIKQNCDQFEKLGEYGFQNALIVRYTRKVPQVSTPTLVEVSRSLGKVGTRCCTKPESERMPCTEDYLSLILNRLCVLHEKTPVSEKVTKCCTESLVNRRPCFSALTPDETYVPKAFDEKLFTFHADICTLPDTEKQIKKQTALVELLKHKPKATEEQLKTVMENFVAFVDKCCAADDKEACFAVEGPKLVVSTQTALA
Chain of acetylcholinesterase (AChE) (P22303 32-614, species assumed): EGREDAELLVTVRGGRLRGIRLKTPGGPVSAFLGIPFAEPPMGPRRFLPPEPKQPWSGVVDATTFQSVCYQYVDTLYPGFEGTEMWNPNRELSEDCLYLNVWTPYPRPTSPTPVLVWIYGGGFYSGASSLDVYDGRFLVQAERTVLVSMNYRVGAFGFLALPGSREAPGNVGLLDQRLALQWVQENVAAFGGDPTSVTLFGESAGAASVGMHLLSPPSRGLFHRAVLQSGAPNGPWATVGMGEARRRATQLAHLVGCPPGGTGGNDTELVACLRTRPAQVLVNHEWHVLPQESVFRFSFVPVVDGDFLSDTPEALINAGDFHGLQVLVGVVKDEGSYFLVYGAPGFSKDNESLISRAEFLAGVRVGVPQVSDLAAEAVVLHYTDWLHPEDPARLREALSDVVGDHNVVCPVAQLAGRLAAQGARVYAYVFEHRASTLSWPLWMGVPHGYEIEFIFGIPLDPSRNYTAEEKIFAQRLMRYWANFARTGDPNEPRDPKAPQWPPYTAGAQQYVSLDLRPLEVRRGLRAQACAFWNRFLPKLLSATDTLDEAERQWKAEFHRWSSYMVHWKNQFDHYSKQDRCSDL

Compound: Cc1ccc(NC(=O)c2c(Nc3ccccc3)n[nH]c2N=Cc2c(C)n(C)n(-c3ccccc3)c2=O)cc1 [7b]
- Inhibition (%) Protein Denaturation [1]: 15.36 ± 0.02%
- ABTS (%) inhibition [2]: 43.19 ± 0.03%
- Inhibition (%) α-Glucosidase (α-glucosidase): 15.38 ± 0.03%
- Iron-Reducing Power (IRP) [3]: 19.62 ± 0.04 µg/mL
- Inhibition (%) α-Amylase (α-amylase): 17.88 ± 0.03%
- Total Antioxidant Capacity (TAC) [4]: 29.91 ± 0.11 mg Gallic Acid/g
- inhibition at 1000 µg/mL [5]: 24.07 ± 0.01%
- IC50 [6]: 42.45 ± 0.02 µM
- Inhibition (%) Proteinase [7]: 13.35 ± 0.02%

Compound: Cc1c(C=Nc2[nH]nc(Nc3ccccc3)c2C(=O)Nc2ccc(Cl)cc2)c(=O)n(-c2ccccc2)n1C [7c]
- Inhibition (%) Protein Denaturation [1]: 15.38 ± 0.02%
- ABTS (%) inhibition [2]: 43.27 ± 0.03%
- Inhibition (%) α-Glucosidase (α-glucosidase): 15.41 ± 0.03%
- Iron-Reducing Power (IRP) [3]: 19.65 ± 0.04 µg/mL
- Inhibition (%) α-Amylase (α-amylase): 17.91 ± 0.03%
- Total Antioxidant Capacity (TAC) [4]: 29.96 ± 0.11 mg Gallic Acid/g
- inhibition at 1000 µg/mL [5]: 24.11 ± 0.01%
- IC50 [6]: 40.72 ± 0.02 µM
- Inhibition (%) Proteinase [7]: 13.38 ± 0.02%

Compound: COc1ccc(Nc2n[nH]c(N=Cc3c(C)n(C)n(-c4ccccc4)c3=O)c2C(=O)Nc2ccccc2)cc1 [7d]
- Inhibition (%) Protein Denaturation [1]: 15.59 ± 0.02%
- ABTS (%) inhibition [2]: 43.85 ± 0.03%
- Inhibition (%) α-Glucosidase (α-glucosidase): 15.61 ± 0.03%
- Iron-Reducing Power (IRP) [3]: 19.92 ± 0.04 µg/mL
- Inhibition (%) α-Amylase (α-amylase): 18.16 ± 0.03%
- Total Antioxidant Capacity (TAC) [4]: 30.36 ± 0.11 mg Gallic Acid/g
- inhibition at 1000 µg/mL [5]: 24.44 ± 0.01%
- IC50 [6]: 40.53 ± 0.02 µM
- Inhibition (%) Proteinase [7]: 13.56 ± 0.02%

Compound: COc1ccc(Nc2n[nH]c(N=Cc3c(C)n(C)n(-c4ccccc4)c3=O)c2C(=O)Nc2ccc(C)cc2)cc1 [7e]
- Inhibition (%) Protein Denaturation [1]: 8.05 ± 0.01%
- ABTS (%) inhibition [2]: 22.65 ± 0.01%
- Inhibition (%) α-Glucosidase (α-glucosidase): 8.07 ± 0.02%
- Iron-Reducing Power (IRP) [3]: 10.29 ± 0.02 µg/mL
- Inhibition (%) α-Amylase (α-amylase): 9.38 ± 0.02%
- Total Antioxidant Capacity (TAC) [4]: 15.68 ± 0.06 mg Gallic Acid/g
- inhibition at 1000 µg/mL [5]: 12.62 ± 0.01%
- IC50 [6]: 51.98 ± 0.03 µM
- Inhibition (%) Proteinase [7]: 4.81 ± 0.01%
